Measured values taken from the NIST ThermoML archive (doi:10.1016/j.jct.2018.11.004).

Assay: molar heat capacity at constant pressure

CC(C)[C@@H]1CC[C@@H](C)C[C@H]1O [L-menthol]
Settings | molar heat capacity at constant pressure [J/K/mol]
5 K, 101.33 kPa, Crystal 1, Small (less than 1 g) adiabatic calorimetry | 0.858
10 K, 101.33 kPa, Crystal 1, Small (less than 1 g) adiabatic calorimetry | 5.528
15 K, 101.33 kPa, Crystal 1, Small (less than 1 g) adiabatic calorimetry | 12.7
20 K, 101.33 kPa, Crystal 1, Small (less than 1 g) adiabatic calorimetry | 20.26
25 K, 101.33 kPa, Crystal 1, Small (less than 1 g) adiabatic calorimetry | 27.36
30 K, 101.33 kPa, Crystal 1, Small (less than 1 g) adiabatic calorimetry | 33.65
35 K, 101.33 kPa, Crystal 1, Small (less than 1 g) adiabatic calorimetry | 39.12
40 K, 101.33 kPa, Crystal 1, Small (less than 1 g) adiabatic calorimetry | 44.06
45 K, 101.33 kPa, Crystal 1, Small (less than 1 g) adiabatic calorimetry | 48.69
50 K, 101.33 kPa, Crystal 1, Small (less than 1 g) adiabatic calorimetry | 53.14
55 K, 101.33 kPa, Crystal 1, Small (less than 1 g) adiabatic calorimetry | 57.47
60 K, 101.33 kPa, Crystal 1, Small (less than 1 g) adiabatic calorimetry | 61.81
65 K, 101.33 kPa, Crystal 1, Small (less than 1 g) adiabatic calorimetry | 66.15
70 K, 101.33 kPa, Crystal 1, Small (less than 1 g) adiabatic calorimetry | 70.48
75 K, 101.33 kPa, Crystal 1, Small (less than 1 g) adiabatic calorimetry | 74.81
80 K, 101.33 kPa, Crystal 1, Small (less than 1 g) adiabatic calorimetry | 79.11
85 K, 101.33 kPa, Crystal 1, Small (less than 1 g) adiabatic calorimetry | 83.38
90 K, 101.33 kPa, Crystal 1, Small (less than 1 g) adiabatic calorimetry | 87.62
95 K, 101.33 kPa, Crystal 1, Small (less than 1 g) adiabatic calorimetry | 91.81
100 K, 101.33 kPa, Crystal 1, Small (less than 1 g) adiabatic calorimetry | 95.95
105 K, 101.33 kPa, Crystal 1, Small (less than 1 g) adiabatic calorimetry | 100
110 K, 101.33 kPa, Crystal 1, Small (less than 1 g) adiabatic calorimetry | 104
115 K, 101.33 kPa, Crystal 1, Small (less than 1 g) adiabatic calorimetry | 108
120 K, 101.33 kPa, Crystal 1, Small (less than 1 g) adiabatic calorimetry | 111.8
125 K, 101.33 kPa, Crystal 1, Small (less than 1 g) adiabatic calorimetry | 115.7
130 K, 101.33 kPa, Crystal 1, Small (less than 1 g) adiabatic calorimetry | 119.4
135 K, 101.33 kPa, Crystal 1, Small (less than 1 g) adiabatic calorimetry | 123.1
140 K, 101.33 kPa, Crystal 1, Small (less than 1 g) adiabatic calorimetry | 126.8
145 K, 101.33 kPa, Crystal 1, Small (less than 1 g) adiabatic calorimetry | 130.4
150 K, 101.33 kPa, Crystal 1, Small (less than 1 g) adiabatic calorimetry | 134
155 K, 101.33 kPa, Crystal 1, Small (less than 1 g) adiabatic calorimetry | 137.5
160 K, 101.33 kPa, Crystal 1, Small (less than 1 g) adiabatic calorimetry | 141.1
165 K, 101.33 kPa, Crystal 1, Small (less than 1 g) adiabatic calorimetry | 144.6
170 K, 101.33 kPa, Crystal 1, Small (less than 1 g) adiabatic calorimetry | 148.1
175 K, 101.33 kPa, Crystal 1, Small (less than 1 g) adiabatic calorimetry | 151.6
180 K, 101.33 kPa, Crystal 1, Small (less than 1 g) adiabatic calorimetry | 155.1
185 K, 101.33 kPa, Crystal 1, Small (less than 1 g) adiabatic calorimetry | 158.6
190 K, 101.33 kPa, Crystal 1, Small (less than 1 g) adiabatic calorimetry | 162.2
195 K, 101.33 kPa, Crystal 1, Small (less than 1 g) adiabatic calorimetry | 165.7
200 K, 101.33 kPa, Crystal 1, Small (less than 1 g) adiabatic calorimetry | 169.3
205 K, 101.33 kPa, Crystal 1, Small (less than 1 g) adiabatic calorimetry | 172.8
210 K, 101.33 kPa, Crystal 1, Small (less than 1 g) adiabatic calorimetry | 176.4
215 K, 101.33 kPa, Crystal 1, Small (less than 1 g) adiabatic calorimetry | 180
220 K, 101.33 kPa, Crystal 1, Small (less than 1 g) adiabatic calorimetry | 183.7
225 K, 101.33 kPa, Crystal 1, Small (less than 1 g) adiabatic calorimetry | 187.4
230 K, 101.33 kPa, Crystal 1, Small (less than 1 g) adiabatic calorimetry | 191.1
235 K, 101.33 kPa, Crystal 1, Small (less than 1 g) adiabatic calorimetry | 194.9
240 K, 101.33 kPa, Crystal 1, Small (less than 1 g) adiabatic calorimetry | 198.7
245 K, 101.33 kPa, Crystal 1, Small (less than 1 g) adiabatic calorimetry | 202.5
250 K, 101.33 kPa, Crystal 1, Small (less than 1 g) adiabatic calorimetry | 206.5
255 K, 101.33 kPa, Crystal 1, Small (less than 1 g) adiabatic calorimetry | 210.7
260 K, 101.33 kPa, Crystal 1, Small (less than 1 g) adiabatic calorimetry | 215.1
265 K, 101.33 kPa, Crystal 1, Small (less than 1 g) adiabatic calorimetry | 219.5
265.2 K, 100 kPa, Crystal 1, Extra sensitive DSC | 221.5
270 K, 100 kPa, Crystal 1, Extra sensitive DSC | 225.6
270 K, 101.33 kPa, Crystal 1, Small (less than 1 g) adiabatic calorimetry | 223.9
275 K, 100 kPa, Crystal 1, Extra sensitive DSC | 230
275 K, 101.33 kPa, Crystal 1, Small (less than 1 g) adiabatic calorimetry | 228.2
280 K, 100 kPa, Crystal 1, Extra sensitive DSC | 235.1
280 K, 101.33 kPa, Crystal 1, Small (less than 1 g) adiabatic calorimetry | 232.4
285 K, 100 kPa, Crystal 1, Extra sensitive DSC | 240.5
285 K, 101.33 kPa, Crystal 1, Small (less than 1 g) adiabatic calorimetry | 236.7
290 K, 100 kPa, Crystal 1, Extra sensitive DSC | 246.3
290 K, 101.33 kPa, Crystal 1, Small (less than 1 g) adiabatic calorimetry | 241.5
295 K, 100 kPa, Crystal 1, Extra sensitive DSC | 253.1
295 K, 101.33 kPa, Crystal 1, Small (less than 1 g) adiabatic calorimetry | 246.7
298.15 K, 101.33 kPa, Crystal 1, Small (less than 1 g) adiabatic calorimetry | 250.1
300 K, 101.33 kPa, Crystal 1, Small (less than 1 g) adiabatic calorimetry | 252.3
305 K, 101.33 kPa, Crystal 1, Small (less than 1 g) adiabatic calorimetry | 258.3
310 K, 101.33 kPa, Crystal 1, Small (less than 1 g) adiabatic calorimetry | 264.6
315 K, 101.33 kPa, Crystal 1, Small (less than 1 g) adiabatic calorimetry | 271.4
315.6 K, 101.33 kPa, Crystal 1, Small (less than 1 g) adiabatic calorimetry | 272.3

Liquid
Settings | molar heat capacity at constant pressure [J/K/mol]
315.6 K, 101.33 kPa, Small (less than 1 g) adiabatic calorimetry | 376.1
320 K, 101.33 kPa, Small (less than 1 g) adiabatic calorimetry | 383.1
325 K, 101.33 kPa, Small (less than 1 g) adiabatic calorimetry | 390.8
325.9 K, 100 kPa, Extra sensitive DSC | 395.1
330 K, 100 kPa, Extra sensitive DSC | 401.1
330 K, 101.33 kPa, Small (less than 1 g) adiabatic calorimetry | 398.1
335 K, 100 kPa, Extra sensitive DSC | 408
335 K, 101.33 kPa, Small (less than 1 g) adiabatic calorimetry | 404.9
340 K, 100 kPa, Extra sensitive DSC | 414.3
340 K, 101.33 kPa, Small (less than 1 g) adiabatic calorimetry | 411.3
345 K, 100 kPa, Extra sensitive DSC | 420.5
345 K, 101.33 kPa, Small (less than 1 g) adiabatic calorimetry | 417.1
350 K, 100 kPa, Extra sensitive DSC | 426.2
350 K, 101.33 kPa, Small (less than 1 g) adiabatic calorimetry | 422.3
355 K, 100 kPa, Extra sensitive DSC | 430.8
355 K, 101.33 kPa, Small (less than 1 g) adiabatic calorimetry | 427
360 K, 101.33 kPa, Small (less than 1 g) adiabatic calorimetry | 431
365 K, 101.33 kPa, Small (less than 1 g) adiabatic calorimetry | 434.3
370 K, 101.33 kPa, Small (less than 1 g) adiabatic calorimetry | 437
